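Five compound concentrations were applied to cells in 96-well plates for 48 hours; endpoints were derived by simple linear interpolation of the resulting dose-response curve. GI50: concentration for 50% inhibition of growth.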 Active and inactive are the calls of the source. No stated cut-off is given here; in the data, active = GI50 up to about 1.1 µM and inactive = higher.
Assays:
Assay in all cases: DTP human tumour cell line panel, 48 h
786-0 = tested on: 786-0
CAKI-1 = tested on: CAKI-1
CCRF-CEM = tested on: CCRF-CEM
DU-145 = tested on: DU-145
HCT-116 = tested on: HCT-116
HCT-15 = tested on: HCT-15
HL-60 = tested on: HL-60
HT-29 = tested on: HT-29
MCF7 = tested on: MCF7
MDA-MB-231 = tested on: MDA-MB-231
NCI-H226 = tested on: NCI-H226
NCI-H23 = tested on: NCI-H23
NCI-H460 = tested on: NCI-H460
SF-295 = tested on: SF-295
SN12C = tested on: SN12C
UACC-62 = tested on: UACC-62
UO-31 = tested on: UO-31
SF-539 = tested on: SF-539

| Compound | GI50 (786-0) | GI50 (CAKI-1) | GI50 (CCRF-CEM) | GI50 (DU-145) | GI50 (HCT-116) | GI50 (HCT-15) [µM] | GI50 (HL-60) | GI50 (HT-29) | GI50 (MCF7) | GI50 (MDA-MB-231) | GI50 (NCI-H226) | GI50 (NCI-H23) | GI50 (NCI-H460) | GI50 (SF-295) | GI50 (SN12C) | GI50 (UACC-62) | GI50 (UO-31) | GI50 (SF-539) |
| --- | --- | --- | --- | --- | --- | --- | --- | --- | --- | --- | --- | --- | --- | --- | --- | --- | --- | --- |
| Nc1ccc(Oc2ccc(C34CC5C6CC7(c8ccc(Oc9ccc(N)cc9)cc8)CC5C(C3)C(C7)C6C4)cc2)cc1 | > 100 µM (inactive) | > 100 µM (inactive) | > 100 µM (inactive) | > 100 µM (inactive) | > 100 µM (inactive) | > 100 | > 100 µM (inactive) | > 100 µM (inactive) | > 100 µM (inactive) | > 100 µM (inactive) | > 100 µM (inactive) | > 100 µM (inactive) | > 100 µM (inactive) | > 100 µM (inactive) | > 100 µM (inactive) | > 100 µM (inactive) | > 100 µM (inactive) | – |
| CC[C@@H]1CC[C@@H]2[C@H](CC[C@]3(C)[C@@H](O[N+](=O)[O-])CC[C@@H]23)[C@H]1C(C)=O | 50.7 µM (inactive) | 50.7 µM (inactive) | 32.4 µM (inactive) | 45.7 µM (inactive) | 23.7 µM (inactive) | 22.2 | 13.5 µM (inactive) | 13.1 µM (inactive) | 23.8 µM (inactive) | 11.8 µM (inactive) | 26.5 µM (inactive) | 28.1 µM (inactive) | 27.4 µM (inactive) | 42.6 µM (inactive) | 43.3 µM (inactive) | – | 24.6 µM (inactive) | 38.3 µM (inactive) |
| O=C1CCCc2ccc3c(c21)CC1(Cc2cc4c(cc2C1)CCCC4)C3 | 18.1 µM (inactive) | – | 3.94 µM (inactive) | 20.9 µM (inactive) | 16.1 µM (inactive) | 19.4 | 6.05 µM (inactive) | 18.4 µM (inactive) | 17.5 µM (inactive) | 15.5 µM (inactive) | 17.4 µM (inactive) | 18.2 µM (inactive) | 22.8 µM (inactive) | 29.8 µM (inactive) | 19.1 µM (inactive) | 20.3 µM (inactive) | 15.7 µM (inactive) | 20.3 µM (inactive) |
| COc1ccc(OC)c(CNc2ccc(C(=O)O)cc2)c1 | > 100 µM (inactive) | > 100 µM (inactive) | > 100 µM (inactive) | > 100 µM (inactive) | > 100 µM (inactive) | > 100 | > 100 µM (inactive) | > 100 µM (inactive) | > 100 µM (inactive) | > 100 µM (inactive) | > 100 µM (inactive) | > 100 µM (inactive) | – | – | – | > 100 µM (inactive) | > 100 µM (inactive) | > 100 µM (inactive) |
| CC1CC(C#N)=C2NCCN2C1=O (stereo not given) | > 100 µM (inactive) | 51.9 µM (inactive) | > 100 µM (inactive) | > 100 µM (inactive) | – | > 100 | > 100 µM (inactive) | > 100 µM (inactive) | 20.8 µM (inactive) | > 100 µM (inactive) | > 100 µM (inactive) | > 100 µM (inactive) | > 100 µM (inactive) | > 100 µM (inactive) | > 100 µM (inactive) | > 10 µM (inactive) | > 100 µM (inactive) | > 100 µM (inactive) |
| COC(=O)c1cncc2c1CC1C3(C(=O)OC)C=NC(C4C(CO)=CCC43)C21C (stereo not given) | > 100 µM (inactive) | > 100 µM (inactive) | > 100 µM (inactive) | > 100 µM (inactive) | > 100 µM (inactive) | > 100 | > 100 µM (inactive) | > 100 µM (inactive) | > 100 µM (inactive) | > 100 µM (inactive) | > 100 µM (inactive) | > 100 µM (inactive) | > 100 µM (inactive) | > 100 µM (inactive) | > 100 µM (inactive) | – | > 100 µM (inactive) | > 100 µM (inactive) |

Reference: ChEMBL document CHEMBL1201862, “PubChem BioAssay data set” (2004)
